Laboratory results: publication PMC3322948, “Phase I first-in-human study of TAK-285, a novel investigational dual HER2/EGFR inhibitor, in cancer patients” (British Journal of Cancer, 2012)
Like-named read-outs stand apart in the source and are kept apart here.

Legend:
[1] = Plasma pharmacokinetics after oral TAK-285 (LC-MS/MS, noncompartmental); assay type: in vivo, human (Japanese patients); settings: for Cmax / half-life / Tmax / AUC(0-inf) / AUC: human, plasma, oral; for Tmax: median (range); for AUC: read-out: AUC0–tau
Experimental: In the dose escalation cohort, plasma samples for PK analysis were collected at predose and up to 72 h after single dose administration and on day 21 after repeated administration of TAK-285. Urine samples were also collected up to 24-h postdose. In the repeated administration cohort, plasma samples for PK analysis were collected at predose and up to 12-h postdose on days 1 and 28. Urine samples were also collected up to 12-h postdose each day. Concentrations of TAK-285 and M-I in plasma and urine were determined using validated liquid chromatography tandem mass spectrometry (LC-MS/MS) methods. The plasma and urine samples were treated by liquid–liquid extraction and subjected to LC-MS/MS equipped with a reversed-phase column. The lower limit of quantification for both TAK-285 and M-I was 0.2 ng ml^–1 in plasma and 2 ng ml^–1 in urine when 50 μl of the plasma sample and 55 μl of the urine sample (containing 5 μl of Tween 80 solution) were analysed. Tween 80 solution was added to the urine sample to prevent the adsorption of analytes onto the sample containers. The accuracy of the plasma assay (percentage deviation from nominal) ranged from −10.8 to 11.0% for TAK-285, and from −14.0 to 13.8% for M-I. […] Pharmacokinetic parameters of TAK-285 and M-I were estimated for each patient using noncompartmental methods with Phoenix WinNonlin Version 6.1 (Pharsight, Mountain View, CA, USA).

[2] = test system: circulating tumour cells; test: Circulating tumour cell enumeration (CellSearch); assay type: in vivo, human (Japanese patients)
Experimental: At screening and on day 15 after the start of repeated administration, 20 ml of peripheral blood was obtained and divided into two 10 ml exclusive use containers (CellSave tubes) filled with 300 μl of preservative solution (4.6% Na-ethylenediaminetetraacetate, 36% cell preservative, 0.36% polyethylene glycol and 0.4% inert ingredients). The samples were stored at room temperature and processed within 72 h after sampling. The CellSearch System (Veridex LLC, Raritan, NJ, USA) was used for the isolation and enumeration of circulating tumour cells (CTCs), which were defined as nucleated cells lacking cluster of differentiation 45 and expressing cytokeratin.

[3] = test system: solid tumours; test: Antitumour activity by RECIST in patients; assay type: in vivo, human (Japanese patients)
Experimental: The primary study endpoints were to determine the MTD as well as PK profiles of TAK-285 and its metabolite, M-I (data on file, Takeda Pharmaceutical Company Limited). The secondary endpoints were objective response rate (complete response (CR) and partial response (PR)), disease control rate (CR, PR and stable disease (SD), for at least 12 weeks), and time to tumour progression, defined as the time from the first dose of TAK-285 until disease progression or death. Tumour response was assessed every 4 weeks by RECIST version 1.0 ([Therasse et al, 2000]).

[4] = test system: HER2; settings: biochemical; ref Aertgeerts et al, 2011; read-out: 50% inhibition concentration, HER2 phosphorylation; cited from earlier work
[5] = test system: EGFR; settings: biochemical; ref Aertgeerts et al, 2011; read-out: 50% inhibition concentration, EGFR phosphorylation; cited from earlier work
[6] = test system: HER2- or EGFR-overexpressing human tumour xenografts such as BT-474, 4-1 ST and A431; design: method as in Iwahara et al, 2008; settings: orally administered; ref Iwahara et al, 2008; cited from earlier work
[7] = rodent and primate; non-clinical studies; cited from earlier work
[8] = 50 mg, single dosing, 50 mg b.i.d., dose escalation cohort, mean (s.d.)
[9] = 50 mg, single dosing, 50 mg q.d., dose escalation cohort, mean (s.d.)
[10] = 100 mg, single dosing, 100 mg b.i.d., dose escalation cohort, mean (s.d.)
[11] = 200 mg, single dosing, 200 mg b.i.d., dose escalation cohort, mean (s.d.)
[12] = 300 mg, single dosing, 300 mg b.i.d., repeated administration cohort, mean (s.d.)
[13] = multiple versus single dosing, across doses

For `CC(C)(O)CC(=O)NCCn1ccc2ncnc(Nc3ccc(Oc4cccc(C(F)(F)F)c4)c(Cl)c3)c21` [TAK-285], the “R (Cmax), accumulation ratio multiple versus single dosing” value ([1]; day 21, 50 mg b.i.d., dose escalation cohort, mean (s.d.)) was […], the “R (Cmax), accumulation ratio multiple versus single dosing” value ([1]; day 21, 50 mg q.d., dose escalation cohort, mean (s.d.)) was […] and the “R (Cmax), accumulation ratio multiple versus single dosing” value ([1]; day 21, 100 mg b.i.d., dose escalation cohort, mean (s.d.)) was […]. For the same compound, the “R (Cmax), accumulation ratio multiple versus single dosing” value ([1]; day 21, 200 mg b.i.d., dose escalation cohort, mean (s.d.)) was […], the “R (Cmax), accumulation ratio multiple versus single dosing” value ([1]; day 21, 300 mg b.i.d., dose escalation cohort, mean (s.d.)) was […] and the “R (Cmax), accumulation ratio multiple versus single dosing” value ([1]; day 28, 300 mg b.i.d., repeated administration cohort, mean (s.d.)) was […]. The Cmax ([1]; 50 mg b.i.d., multiple dosing day 21, 50 mg b.i.d., dose escalation cohort, mean (s.d.)) was 358 ng/mL, the half-life ([1]; 50 mg b.i.d., multiple dosing day 21, 50 mg b.i.d., dose escalation cohort, mean (s.d.), read-out: t1/2 (converted)) was 7.49 h and the Tmax ([1]; 50 mg b.i.d., multiple dosing day 21, 50 mg b.i.d., dose escalation cohort) was 2.05 h. It also gave a Cmax ([1]; 50 mg q.d., multiple dosing day 21, 50 mg q.d., dose escalation cohort, mean (s.d.)) of 260 ng/mL, a half-life ([1]; 50 mg q.d., multiple dosing day 21, 50 mg q.d., dose escalation cohort, mean (s.d.), read-out: t1/2 (converted)) of 8.69 h and a Tmax ([1]; 50 mg q.d., multiple dosing day 21, 50 mg q.d., dose escalation cohort) of 2 h. For the same compound, the AUC(0-inf) [1, 8] was 1970 ng·h/mL, the Cmax [1, 8] was 234 ng/mL and the half-life ([1]; 50 mg, single dosing, 50 mg b.i.d., dose escalation cohort, mean (s.d.), read-out: t1/2 (converted)) was 6.45 h. It also gave a Tmax ([1]; 50 mg, single dosing, 50 mg b.i.d., dose escalation cohort) of 1 h, an AUC(0-inf) [1, 9] of 1730 ng·h/mL and a Cmax [1, 9] of 214 ng/mL. It also gave a half-life ([1]; 50 mg, single dosing, 50 mg q.d., dose escalation cohort, mean (s.d.), read-out: t1/2 (converted)) of 7.27 h, a Tmax ([1]; 50 mg, single dosing, 50 mg q.d., dose escalation cohort) of 1.49 h and a Cmax ([1]; 100 mg b.i.d., multiple dosing day 21, 100 mg b.i.d., dose escalation cohort, mean (s.d.)) of 774 ng/mL. It also gave a half-life ([1]; 100 mg b.i.d., multiple dosing day 21, 100 mg b.i.d., dose escalation cohort, mean (s.d.), read-out: t1/2 (converted)) of 7.79 h, a Tmax ([1]; 100 mg b.i.d., multiple dosing day 21, 100 mg b.i.d., dose escalation cohort) of 2 h and an AUC(0-inf) [1, 10] of 2820 ng·h/mL. The Cmax [1, 10] was 379 ng/mL, the half-life ([1]; 100 mg, single dosing, 100 mg b.i.d., dose escalation cohort, mean (s.d.), read-out: t1/2 (converted)) was 9.43 h and the Tmax ([1]; 100 mg, single dosing, 100 mg b.i.d., dose escalation cohort) was 2 h. The Cmax ([1]; 200 mg b.i.d., multiple dosing day 21, 200 mg b.i.d., dose escalation cohort, mean (s.d.)) was 2420 ng/mL, the half-life ([1]; 200 mg b.i.d., multiple dosing day 21, 200 mg b.i.d., dose escalation cohort, mean (s.d.), read-out: t1/2 (converted)) was 6.95 h and the Tmax ([1]; 200 mg b.i.d., multiple dosing day 21, 200 mg b.i.d., dose escalation cohort) was 2 h. The AUC(0-inf) [1, 11] was 9530 ng·h/mL, the Cmax [1, 11] was 965 ng/mL and the half-life ([1]; 200 mg, single dosing, 200 mg b.i.d., dose escalation cohort, mean (s.d.), read-out: t1/2 (converted)) was 6.57 h. It also gave a Tmax ([1]; 200 mg, single dosing, 200 mg b.i.d., dose escalation cohort) of 2.48 h, a Cmax ([1]; 300 mg b.i.d., multiple dosing day 21, 300 mg b.i.d., dose escalation cohort, mean (s.d.)) of 3700 ng/mL and a half-life ([1]; 300 mg b.i.d., multiple dosing day 21, 300 mg b.i.d., dose escalation cohort, mean (s.d.), read-out: t1/2 (converted)) of 8.25 h. It also gave a Tmax ([1]; 300 mg b.i.d., multiple dosing day 21, 300 mg b.i.d., dose escalation cohort) of 2 h, a Cmax ([1]; 300 mg, multiple dosing day 28, 300 mg b.i.d., repeated administration cohort, mean (s.d.)) of 2810 ng/mL and a half-life ([1]; 300 mg, multiple dosing day 28, 300 mg b.i.d., repeated administration cohort, mean (s.d.), read-out: t1/2 (converted)) of 11.1 h. It also gave a Tmax ([1]; 300 mg, multiple dosing day 28, 300 mg b.i.d., repeated administration cohort) of 2.97 h, a Cmax ([1]; 300 mg, single dosing, 300 mg b.i.d., dose escalation cohort, mean (s.d.)) of 1350 ng/mL and a half-life ([1]; 300 mg, single dosing, 300 mg b.i.d., dose escalation cohort, mean (s.d.), read-out: t1/2 (converted)) of 7.5 h. It also gave a Tmax ([1]; 300 mg, single dosing, 300 mg b.i.d., dose escalation cohort) of 2 h, an AUC(0-inf) [1, 12] of 9210 ng·h/mL and a Cmax [1, 12] of 983 ng/mL. It also gave a half-life ([1]; 300 mg, single dosing, 300 mg b.i.d., repeated administration cohort, mean (s.d.), read-out: t1/2 (converted)) of 6.1 h, a Tmax ([1]; 300 mg, single dosing, 300 mg b.i.d., repeated administration cohort) of 2.03 h and a half-life ([1]; at all doses, single dose, read-out: estimated terminal-phase half-life (t1/2)) of 6 to 9 h. The AUC ([1]; multiple dosing day 21, 50 mg b.i.d., dose escalation cohort, mean (s.d.)) was 2720 ng·h/mL, the AUC ([1]; multiple dosing day 21, 50 mg q.d., dose escalation cohort, mean (s.d.)) was 2210 ng·h/mL and the AUC ([1]; multiple dosing day 21, 100 mg b.i.d., dose escalation cohort, mean (s.d.)) was 6090 ng·h/mL. The “accumulation ratios of AUC” value [1, 13] was […], the “accumulation ratios of Cmax” value [1, 13] was […] and the “circulating tumour cell (CTC) changes after treatment” value ([2]; screening versus cycle 1 day 15) was “did not show significant changes”. The “patients with unfavourable baseline CTC count converted to favourable” value ([2]; seven patients with ⩾5 cells per 7.5 ml blood at baseline) was “none”, the disease control rate ([3]; 1 of 26 patients) was 3.8% and the objective response rate ([3]; 1 of 26 patients) was 3.8%. For the same compound, the “median time to tumour progression” value ([3]; 26 patients) was 58 days, the “patients showing reduction in tumour size” value ([3]; dose escalation cohort) was “one” and the “patients achieving partial response (PR), percent” value ([3]; of 26 patients) was 3.8%. The “patients achieving partial response (PR), number” value ([3]; parotid cancer, 300 mg b.i.d.) was “One”, the “duration of partial response” value ([3]; patient with parotid cancer) was […] and the “patients showing reduction in tumour size” value ([3]; repeated administration cohort, of six patients) was “three”. For the same compound, the IC50 [4] was 17 nM, the IC50 [5] was […] and the xenograft growth [6] was “effectively inhibited xenograft growth”. For the same compound, the “tolerability in toxicity models” value [7] was “well tolerated”.
